Experimental data reported in US20230158067A1 (priority 2020, published 2023).
“And” between values parts separate entries of the source, which are not always exact repeats. Identical values can stand only once.

Experiments:
[1] = tested on: SARS-CoV2; experiment: microbe, parasite or virus in culture; format: cell-based; details: for Percentages of infection at 24 h: MOI 0.002, technical replicates
[2] = tested on: Vero cells; details: uninfected Vero cells, MTT, 24 h
[3] = Severe acute respiratory syndrome coronavirus 2, Vero, 24 h

## CCC(CC)COC(=O)[C@H](C)N[P@](=O)(OC[C@H]1O[C@@](C#N)(c2ccc3c(N)ncnn23)[C@H](O)[C@@H]1O)Oc1ccccc1 [Remdesivir]
[1]; 0.01 μM
  Percentages of infection at 24 h: 17.52% and 14.77% and 19.44%
[1]; 0.03 μM
  Percentages of infection at 24 h: 20.60% and 10.69% and 23.44%
[1]; 0.08 μM
  Percentages of infection at 24 h: 37.97% and 32.40% and 10.00%
[1]; 0.25 μM
  Percentages of infection at 24 h: 8.05% and 17.17% and 39.50%
[1]; 0.74 μM
  Percentages of infection at 24 h: 10.55% and 6.40% and 14.40%
[1]; 2.22 μM
  Percentages of infection at 24 h: 2.04% and 1.54% and 1.69%
[1]; 6.67 μM
  Percentages of infection at 24 h: 0.34% and 0.27% and 0.23%
[1]; 20.00 μM
  Percentages of infection at 24 h: 0.78% and 0.24% and 0.27%
[1]; [3]
  EC50: 0.654 µM
  EC90: 1690 µM
[2]
  TC90: 3.4416 µM
